Results published in ChEMBL document CHEMBL3286379, “Design and synthesis of pyrimidine molecules endowed with thiazolidin-4-one as new anticancer agents” (Eur J Med Chem, 2014).

How the values were obtained:
Assay type in all cases: functional
[1] = Growth inhibition of human Hs 578T cells assessed as cell growth at 10 uM after 48 hrs by sulforhodamine B assay relative to control; settings: read-out: Activity
ACHN = assay: Growth inhibition of human ACHN cells assessed as cell growth at 10 uM after 48 hrs by sulforhodamine B assay relative to control; settings: read-out: Activity
NCI-H226 = assay: Growth inhibition of human NCI-H226 cells assessed as cell growth at 10 uM after 48 hrs by sulforhodamine B assay relative to control; settings: NCI-H226, 48 h, read-out: Activity
DU-145 = assay: Growth inhibition of human DU145 cells assessed as cell growth at 10 uM after 48 hrs by sulforhodamine B assay relative to control; settings: DU-145, 48 h, read-out: Activity
RPMI-8226 = assay: Growth inhibition of human RPMI8226 cells assessed as cell growth at 10 uM after 48 hrs by sulforhodamine B assay relative to control; settings: RPMI-8226, 48 h, read-out: Activity
K562 = assay: Growth inhibition of human K562 cells assessed as cell growth at 10 uM after 48 hrs by sulforhodamine B assay relative to control; settings: K562, 48 h, read-out: Activity
NCI-H460 = assay: Growth inhibition of human NCI-H460 cells assessed as cell growth at 10 uM after 48 hrs by sulforhodamine B assay relative to control; settings: NCI-H460, 48 h, read-out: Activity
A549 = assay: Growth inhibition of human A549/ATCC cells assessed as cell growth at 10 uM after 48 hrs by sulforhodamine B assay relative to control; settings: A549, 48 h, read-out: Activity
IGROV-1 = assay: Growth inhibition of human IGROV1 cells assessed as cell growth at 10 uM after 48 hrs by sulforhodamine B assay relative to control; settings: IGROV-1, 48 h, read-out: Activity
MDA-MB-435 = assay: Growth inhibition of human MDA-MB-435 cells assessed as cell growth at 10 uM after 48 hrs by sulforhodamine B assay relative to control; settings: MDA-MB-435, 48 h, read-out: Activity
[2] = Growth inhibition of human HOP92 cells assessed as cell growth at 10 uM after 48 hrs by sulforhodamine B assay relative to control; settings: HOP-92, 48 h, read-out: Activity
HOP-62 = assay: Growth inhibition of human HOP62 cells assessed as cell growth at 10 uM after 48 hrs by sulforhodamine B assay relative to control; settings: HOP-62, 48 h, read-out: Activity
[3] = Growth inhibition of human OVCAR4 cells assessed as cell growth at 10 uM after 48 hrs by sulforhodamine B assay relative to control; settings: OVCAR-4, 48 h, read-out: Activity
[4] = Growth inhibition of human BT549 cells assessed as cell growth at 10 uM after 48 hrs by sulforhodamine B assay relative to control; settings: BT-549, 48 h, read-out: Activity
HL-60(TB) = assay: Growth inhibition of human HL-60(TB) cells assessed as cell growth at 10 uM after 48 hrs by sulforhodamine B assay relative to control; settings: HL-60, 48 h, read-out: Activity
SNB-75 = assay: Growth inhibition of human SNB75 cells assessed as cell growth at 10 uM after 48 hrs by sulforhodamine B assay relative to control; settings: SNB-75, 48 h, read-out: Activity
NCI-H322M = assay: Growth inhibition of human NCI-H322M cells assessed as cell growth at 10 uM after 48 hrs by sulforhodamine B assay relative to control; settings: read-out: Activity
[5] = Growth inhibition of human LOXIMVI cells assessed as cell growth at 10 uM after 48 hrs by sulforhodamine B assay relative to control; settings: LOX IMVI, read-out: Activity
[6] = Growth inhibition of human HCC2998 cells assessed as cell growth at 10 uM after 48 hrs by sulforhodamine B assay relative to control; settings: HCC 2998, 48 h, read-out: Activity
[7] = Growth inhibition of human RXF393 cells assessed as cell growth at 10 uM after 48 hrs by sulforhodamine B assay relative to control; settings: RXF 393, 48 h, read-out: Activity
[8] = Growth inhibition of human OVCAR8 cells assessed as cell growth at 10 uM after 48 hrs by sulforhodamine B assay relative to control; settings: OVCAR-8, 48 h, read-out: Activity
[9] = Growth inhibition of human MOLT4 cells assessed as cell growth at 10 uM after 48 hrs by sulforhodamine B assay relative to control; settings: MOLT-4, 48 h, read-out: Activity
[10] = Growth inhibition of human SF295 cells assessed as cell growth at 10 uM after 48 hrs by sulforhodamine B assay relative to control; settings: SF-295, 48 h, read-out: Activity
SN12C = assay: Growth inhibition of human SN12C cells assessed as cell growth at 10 uM after 48 hrs by sulforhodamine B assay relative to control; settings: read-out: Activity
CCRF-CEM = assay: Growth inhibition of human CCRF-CEM cells assessed as cell growth at 10 uM after 48 hrs by sulforhodamine B assay relative to control; settings: read-out: Activity
M14 = assay: Growth inhibition of human M14 cells assessed as cell growth at 10 uM after 48 hrs by sulforhodamine B assay relative to control; settings: M14, 48 h, read-out: Activity
[11] = Growth inhibition of human SF539 cells assessed as cell growth at 10 uM after 48 hrs by sulforhodamine B assay relative to control; settings: SF-539, 48 h, read-out: Activity
U-251 = assay: Growth inhibition of human U251 cells assessed as cell growth at 10 uM after 48 hrs by sulforhodamine B assay relative to control; settings: U-251, 48 h, read-out: Activity
[12] = Growth inhibition of human UACC62 cells assessed as cell growth at 10 uM after 48 hrs by sulforhodamine B assay relative to control; settings: UACC-62, 48 h, read-out: Activity
Malme-3M = assay: Growth inhibition of human MALME-3M cells assessed as cell growth at 10 uM after 48 hrs by sulforhodamine B assay relative to control; settings: read-out: Activity
COLO 205 = assay: Growth inhibition of human COLO205 cells assessed as cell growth at 10 uM after 48 hrs by sulforhodamine B assay relative to control; settings: COLO 205, 48 h, read-out: Activity
SF-268 = assay: Growth inhibition of human SF268 cells assessed as cell growth at 10 uM after 48 hrs by sulforhodamine B assay relative to control; settings: SF-268, 48 h, read-out: Activity
SK-MEL-2 = assay: Growth inhibition of human SK-MEL-2 cells assessed as cell growth at 10 uM after 48 hrs by sulforhodamine B assay relative to control; settings: SK-MEL-2, 48 h, read-out: Activity
[13] = Growth inhibition of human HCT15 cells assessed as cell growth at 10 uM after 48 hrs by sulforhodamine B assay relative to control; settings: HCT-15, 48 h, read-out: Activity

| SMILES | growth at 10 µM [1] | growth at 10 µM (ACHN) | growth at 10 µM (NCI-H226) | growth at 10 µM (DU-145) | growth at 10 µM (RPMI-8226) | growth at 10 µM (K562) | growth at 10 µM (NCI-H460) | growth at 10 µM (A549) | growth at 10 µM (IGROV-1) | growth at 10 µM (MDA-MB-435) | growth at 10 µM [2] | growth at 10 µM (HOP-62) | growth at 10 µM [3] | growth at 10 µM [4] | growth at 10 µM (HL-60(TB)) | growth at 10 µM (SNB-75) | growth at 10 µM (NCI-H322M) | growth at 10 µM [5] | growth at 10 µM [6] | growth at 10 µM [7] | further results |
| --- | --- | --- | --- | --- | --- | --- | --- | --- | --- | --- | --- | --- | --- | --- | --- | --- | --- | --- | --- | --- | --- |
| Nc1nc(-c2ccccc2Cl)cc(-c2ccc(Cl)cc2Cl)n1 | 61.9% | 86% | 87.7% | 91.4% | 35.2% | 27.3% | 49.8% | 52.7% | 74.7% | 0.07% | 76.2% | 76.2% | 79.6% | 75.3% | 51.4% | 30.5% | 89.5% | 55.4% | 83.6% | 75.8% | growth at 10 µM [8]: 71.2%; growth at 10 µM [9]: 52.6%; growth at 10 µM [10]: 38.7%; growth at 10 µM (SN12C): 79.6%; growth at 10 µM (CCRF-CEM): 57.5%; growth at 10 µM (M14): 53.5%; growth at 10 µM [11]: 72.2%; growth at 10 µM (U-251): 65%; growth at 10 µM [12]: 63.1%; growth at 10 µM (Malme-3M): 86.6%; growth at 10 µM (COLO 205): 64.9%; growth at 10 µM (SF-268): 65.9%; growth at 10 µM (SK-MEL-2): 96.2%; growth at 10 µM [13]: 90.2% |
| O=C1CS/C(=N\c2nc(-c3ccccc3Cl)cc(-c3ccc(Cl)cc3Cl)n2)N1 | 97.7% | 98.1% | 104% | 105% | 99.6% | 79.5% | 103% | 91.2% | 98.2% | 78.5% | 84.6% | 87.5% | 96.1% | 98.4% | 96.1% | 76.6% | 94.9% | 90.4% | 101% | 111% | growth at 10 µM [8]: 96.1%; growth at 10 µM [9]: 92%; growth at 10 µM [10]: 116%; growth at 10 µM (SN12C): 98.5%; growth at 10 µM (CCRF-CEM): 85.9%; growth at 10 µM (M14): 94%; growth at 10 µM [11]: 103%; growth at 10 µM (U-251): 105%; growth at 10 µM [12]: 91.2%; growth at 10 µM (Malme-3M): 87.3%; growth at 10 µM (COLO 205): 100%; growth at 10 µM (SF-268): 92.2%; growth at 10 µM (SK-MEL-2): 97.9%; growth at 10 µM [13]: 102% |
| O=C1N/C(=N/c2nc(-c3ccccc3Cl)cc(-c3ccc(Cl)cc3Cl)n2)S/C1=C/c1ccc(Cl)cc1 | 91.9% | 91.6% | 98.5% | 100% | 83.6% | 37.6% | 87.2% | 88.8% | 82.3% | 32.1% | 55.1% | 80.2% | 81.9% | 92.2% | 87.1% | 97.5% | 78.1% | 74.1% | 102% | 100% | growth at 10 µM [8]: 91.6%; growth at 10 µM [9]: 94.2%; growth at 10 µM [10]: 48.6%; growth at 10 µM (SN12C): 91.5%; growth at 10 µM (CCRF-CEM): 75.5%; growth at 10 µM (M14): 102%; growth at 10 µM [11]: 97.3%; growth at 10 µM (U-251): 89.4%; growth at 10 µM [12]: 70.2%; growth at 10 µM (Malme-3M): 91.5%; growth at 10 µM (COLO 205): 83.2%; growth at 10 µM (SF-268): 90.9%; growth at 10 µM (SK-MEL-2): 88.9%; growth at 10 µM [13]: 90% |
